In ChEMBL document CHEMBL1201862, “PubChem BioAssay data set” (2004):
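Grown in 96-well plates, cells were treated for 48 hours with each compound at five concentrations. Insufficient inhibition: endpoint recorded as highest concentration tested. GI50: concentration for 50% inhibition of growth.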 The source made the active and inactive calls. Rule as the data show it: active = GI50 up to about 1.1 µM and inactive = higher.

Key:
Assay in all cases: NCI anticancer screen, dose series, 48 h
HOP-62 = test system: HOP-62
SNB-19 = test system: SNB-19
UACC-62 = test system: UACC-62
UACC-257 = test system: UACC-257
MDA-MB-231 = test system: MDA-MB-231
RXF 393 = test system: RXF 393
NCI-H226 = test system: NCI-H226
CAKI-1 = test system: CAKI-1
HCT-15 = test system: HCT-15
RPMI-8226 = test system: RPMI-8226
TK-10 = test system: TK-10
U-251 = test system: U-251
SK-OV-3 = test system: SK-OV-3
COLO 205 = test system: COLO 205
OVCAR-5 = test system: OVCAR-5
A549 = test system: A549
NCI-H522 = test system: NCI-H522
HT-29 = test system: HT-29
SK-MEL-5 = test system: SK-MEL-5
IGROV-1 = test system: IGROV-1

Row | Structure (SMILES) | GI50 (HOP-62) | GI50 (SNB-19) | GI50 (UACC-62) | GI50 (UACC-257) | GI50 (MDA-MB-231) | GI50 (RXF 393) | GI50 (NCI-H226) | GI50 (CAKI-1) | GI50 (HCT-15) [µM] | GI50 (RPMI-8226) | GI50 (TK-10) | GI50 (U-251) | GI50 (SK-OV-3) | GI50 (COLO 205) | GI50 (OVCAR-5) | GI50 (A549) | GI50 (NCI-H522) | GI50 (HT-29) | GI50 (SK-MEL-5) | GI50 (IGROV-1)
1 | Nc1sc2c(c1C(=O)c1ccc(Cl)c(Cl)c1)CCCC2 | 83.6 µM (inactive) | 64.1 µM (inactive) | 92 µM (inactive) | 54.8 µM (inactive) | > 100 µM (inactive) | 27.2 µM (inactive) | > 100 µM (inactive) | 56.8 µM (inactive) | 50.6 | 17.8 µM (inactive) | 41.9 µM (inactive) | 45 µM (inactive) | > 100 µM (inactive) | 32.3 µM (inactive) | > 100 µM (inactive) | 51.9 µM (inactive) | 21 µM (inactive) | 36.4 µM (inactive) |  | 
2 | CC1(C)N=C(N)N=C(N)N1c1ccc(CCCCc2ccc(Cl)cc2Cl)cc1 | 1.08 µM (active) | 0.527 µM (active) |  | 0.659 µM (active) | 2.07 µM (inactive) | 0.891 µM (active) |  | 2.05 µM (inactive) | 5.04 | 1.17 µM (inactive) | 3.13 µM (inactive) | 0.245 µM (active) | 0.746 µM (active) | 0.927 µM (active) | 4.31 µM (inactive) | 0.335 µM (active) | 0.433 µM (active) | 0.546 µM (active) | 1.12 µM (inactive) | 0.451 µM (active)
3 | NS(=O)(=O)c1c(O)c2ccccc2oc1=O | > 100 µM (inactive) | > 100 µM (inactive) | > 100 µM (inactive) | > 100 µM (inactive) | > 100 µM (inactive) | > 100 µM (inactive) | > 100 µM (inactive) | > 100 µM (inactive) |  | > 100 µM (inactive) | > 100 µM (inactive) | > 100 µM (inactive) |  | > 100 µM (inactive) | > 100 µM (inactive) | > 100 µM (inactive) | > 100 µM (inactive) | > 100 µM (inactive) | > 100 µM (inactive) | > 100 µM (inactive)
4 | O=C1/C(=C\c2cccc(Oc3ccccc3)c2)SC(c2ccccc2)N1c1ccc(Cl)cc1 (centres undefined) | > 57.1 µM (inactive) | 59.4 µM (inactive) | 9.04 µM (inactive) | 41.9 µM (inactive) | > 64.6 µM (inactive) | 19.5 µM (inactive) | > 100 µM (inactive) | > 60.3 µM (inactive) | 7.55 | 5.78 µM (inactive) | > 64.9 µM (inactive) | 50.5 µM (inactive) | 14.1 µM (inactive) | 11.2 µM (inactive) | > 39.7 µM (inactive) | > 40.6 µM (inactive) | 10.2 µM (inactive) | 30.8 µM (inactive) | 4.79 µM (inactive) | 
5 | C[C@@H](NC(=O)Nc1cccc(C(=O)Nc2cc(C(C)(C)C)ccc2C(=O)O)n1)c1ccccc1 | 28.4 µM (inactive) | 47 µM (inactive) | 19.7 µM (inactive) |  | 23.4 µM (inactive) | 21.5 µM (inactive) | 38.3 µM (inactive) | 82.2 µM (inactive) | 44.2 | 41.8 µM (inactive) |  | 16.1 µM (inactive) | 43.8 µM (inactive) | 27.3 µM (inactive) | 33.4 µM (inactive) | 44.3 µM (inactive) | 40.8 µM (inactive) | 35.5 µM (inactive) | 30.1 µM (inactive) | 37.9 µM (inactive)
6 | C/C=C\C(CC(=O)OC)CC(=O)N(CCC1CN(S(=O)(=O)C(F)(F)F)c2ccccc21)Cc1ccc(OC)cc1OC (centres undefined) | > 100 µM (inactive) | > 100 µM (inactive) |  | > 100 µM (inactive) | > 100 µM (inactive) | > 100 µM (inactive) | > 100 µM (inactive) | > 100 µM (inactive) | > 100 | 61.7 µM (inactive) | > 100 µM (inactive) | > 100 µM (inactive) | > 100 µM (inactive) | > 100 µM (inactive) | > 100 µM (inactive) | 77.4 µM (inactive) | 57.3 µM (inactive) |  | > 100 µM (inactive) | > 100 µM (inactive)
7 | CC1=NN(c2nc(N)nc(/C(C#N)=C/c3ccncc3)n2)C(C)(C)C1 | > 100 µM (inactive) | > 100 µM (inactive) | > 100 µM (inactive) | > 100 µM (inactive) | > 100 µM (inactive) | 32 µM (inactive) | > 100 µM (inactive) | > 100 µM (inactive) | > 100 | > 100 µM (inactive) | > 100 µM (inactive) | > 100 µM (inactive) | > 100 µM (inactive) | > 100 µM (inactive) |  |  |  | > 100 µM (inactive) | > 100 µM (inactive) | > 100 µM (inactive)
8 | N/C(COc1ccc(Cl)cc1)=N\NC(=O)c1ccncc1 | > 100 µM (inactive) | > 100 µM (inactive) | > 100 µM (inactive) | 72.4 µM (inactive) | > 100 µM (inactive) | 35.9 µM (inactive) |  | > 100 µM (inactive) | 55.6 | 39.4 µM (inactive) | > 100 µM (inactive) | > 100 µM (inactive) | > 100 µM (inactive) | > 100 µM (inactive) | > 100 µM (inactive) | > 100 µM (inactive) | > 100 µM (inactive) | > 100 µM (inactive) |  | > 100 µM (inactive)
